A short description of assay [1]: Trypanosoma cruzi growth suppression in host cells – NIH3T3 host cells, beta-gal luminescence, confirmation (AID 2044).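 Note: intracellular parasites grown in NIH/3T3 mouse fibroblasts as host cells; luminescent beta-galactosidase reporter signal from transgenic T. cruzi replicating inside host cells; inhibitors lower the luminescence signal.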 The class given is functional, cell-based.
Assay [2] is described as follows: NIH3T3 cell viability loss – ATP luminescence, mouse fibroblasts, counter-screen, dose response (AID 2010).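 Note: cells exposed to compound for about 90 hours before reading.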 The class given is functional, cell-based. A general note: Counterscreens check selectivity or assay interference.
Assay [3] relates to Streptococcus sp. 'group A'. The experiment in a line: Streptococcus pyogenes SK(-)GAS viability under kanamycin – luminescence, BacTiterGlo, confirmation, counter-screen for streptokinase expression inhibitor project, dose response (AID 1900). The class given is functional, organism-based.
Another assay relates to Streptococcus. The experiment in a line: GAS UMAA2166 growth inhibition – luminescence, BacTiterGlo, counter-screen for streptokinase expression inhibitor project, dose response (AID 1915).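 Note: potency for reduction of bacterial viability or growth.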 In kind it is functional, organism-based.
Assay [4] is described as follows: Luminescence Cell-Based Dose Response HTS to Identify Activators of Luciferase Translation or Activity in H4 […] Cells. [Related pubchem assays: 1829 (Project Summary), 1814 (Primary HTS)]. The class given is functional.

Calls of active or inactive are those of the source. Cut-off read from the data, not from the text of the source: actives have a measured EC50 and inactives only a lower limit.

As a reminder, the EC50 is the concentration needed to bring the measured effect to its halfway point. In the case of `CN(c1ccc(OCC(=O)Nc2nc(-c3ccccc3)cs2)cc1)S(=O)(=O)c1ccc(F)cc1`, the 50% effective concentration (EC50) in assay [1] is 1.14 µM (active); in assay [2], > 60 µM (not active). `O=C(Cn1c(C(=O)N2CCN(C3CCCCC3)CC2)cc2sccc21)c1ccccc1`: the EC50 in assay [1] was 2.53 µM (active); in assay [2] it was > 60 µM (not active). Taken in the same sequence, the figures for `O=C(CSc1nnnn1-c1cccc2ccccc12)Nc1ccc(N2CCOCC2)c(Cl)c1` were 0.457 µM (active) and > 60 µM (inconclusive). The like results for `COc1ccc(Cl)cc1N=C(S)N(Cc1cccnc1)Cc1ccco1` were, in that order, 0.722 µM (active) and > 60 µM (not active). Taken in the same sequence, the figures for `COc1ccc(-c2cc(C(F)(F)F)n3ncc(C(=O)N4CCc5ccccc5C4)c3n2)cc1` were 1.84 µM (active) and > 60 µM (not active).

For the compound `CCc1cccc(C)c1NC(=O)COC(=O)c1c2c(nc3ccccc13)/C(=C\c1cccs1)CCC2`, the results for the EC50 in assay [1] and in assay [2] were 2.22 µM (active) and > 60 µM (not active), respectively.

With `Cc1nn(Cc2ccccc2)c(C)c1NC(=O)c1ccc([N+](=O)[O-])cc1[N+](=O)[O-]`, the results for the 50% effective concentration (EC50) in assay [1] and in assay [2] were 0.307 µM (active) and > 60 µM (not active), respectively. Take `CCc1ccccc1N=C(S)NCCSc1ccc(Cl)cc1`: the 50% effective concentration (EC50) in assay [3] is 19.9 µM (active); in the assay on Streptococcus, > 150 µM (not active). In the case of `C=CCNC(=S)N/N=C/c1ccc(-c2ccc(Cl)cc2Cl)o1`, the values for the EC50 in assay [1] and in assay [2] were 1.6 µM (active) and > 60 µM (not active), respectively.

In the case of `CCN(CC)c1ccc(NC(=O)c2ccc3c(c2)c(C)c(C)n3C)cc1`, the values for the EC50 in assay [1] and in assay [2] were 1.63 µM (active) and > 60 µM (not active), respectively. Taken in the same sequence, the figures for `OCCN1CCN(Cc2cccc(Oc3ccc(Cl)cc3)c2)CC1` were 3.92 µM (active) and > 60 µM (not active). As for `CCOC(=O)c1sc2nc(Cc3ccc(Cl)cc3)nc(S)c2c1C`, the concentration for a half-maximal effect (EC50) in assay [3] was 4.03 µM (active); with Streptococcus it was > 150 µM (not active). Consider `CCOC(=O)c1sc(NC(=O)c2ccc(S(=O)(=O)N(C)C)cc2)cc1C`, for which the EC50 in assay [1] was 2.21 µM (active); in assay [2] it was 8.88 µM (active). Taken in the same sequence, the figures for `Clc1ccc(-c2csc(Nc3cccnc3)n2)cc1` were 0.3 µM (active) and > 60 µM (not active). Taken in the same sequence, the figures for `O=C(c1cc(-c2ccncc2)nc2ccc(Cl)cc12)N1CCN(Cc2ccc3c(c2)OCO3)CC1` were 0.152 µM (active) and > 60 µM (not active). The like results for `Cc1cc(C)c2nc(N(CCCN(C)C)C(=O)c3ccc4c(c3)OCCO4)sc2c1` were, in that order, 0.5 µM (active) and 54.2 µM (active).

Turning to `NC(=S)N/N=C\c1ccccc1OCc1ccccc1`, the concentration for a half-maximal effect (EC50) was 0.623 µM (active) in assay [1] and > 30 µM (not active) in assay [2]. Taken in the same sequence, the figures for `CC(CCN(C)C)OC(=O)c1ccc(C(C)c2ccccc2)o1` (configuration not stated) were 0.845 µM (active) and > 60 µM (not active). In the case of `Cc1nc(-c2ccccc2)sc1-c1ccnn1C`, the 50% effective concentration (EC50) in assay [4] was 0.367 µM (active).

Source of the values: ChEMBL document CHEMBL1201862, “PubChem BioAssay data set” (2004).
